Measured values from USRE44873E1, “Imidazole-5-carboxylic acid derivatives, the preparation method therefor and the uses thereof” (Salubris Asset Management Co., Ltd., priority 2006, dated 2014).

How the values were obtained:
[1] = test system: spontaneously hypertensive rat (SHR); test: Effect of lowering blood pressure in spontaneously hypertensive rats (administration through stomach fistula); type: in vivo; settings: female SHR, 30 mg/kg through stomach fistula, recorded in 6 hours after administration; for Systolic blood pressure post-administration: first figure of pair; for Diastolic blood pressure post-administration: second figure of pair
Protocol: A female spontaneously hypertensive rat (SHR) is anaesthetize by abdominal cavity injection with diazepam of 5 mg/kg and ketamine hydrochloride of 50 mg/kg and its back is fixed. An artery conduit is inserted from the left of a femoral artery to a lower abdominal aorta, and then a stomach fistula treatment is operated. After 20-30 hours for postoperative recovery, the artery conduit is connected to a pressure transducer by a perfusion three-way tube. Blood pressure signals per pulse are transformed into biologic signals by the pressure transducer, and systolic blood pressures and diastolic blood pressures per pulse are real-time recorded by a computer. After the SHR is connected to the computer system for 4-5 hours, blood pressures and palpitation intervals in one hour are recorded as normal comparing data before administration. Afterwards, the medicine with a dosage of 30 mg/kg and a volume of 2 ml/kg is administrated through the stomach fistula. Blood pressures in 6 hours after administration are continuously recorded to observe change of systolic blood pressure and diastolic blood pressure.
A female spontaneously hypertensive rat (SHR) is anaesthetize by abdominal cavity injection with diazepam of 5 mg/kg and ketamine hydrochloride of 50 mg/kg and its back is fixed. An artery conduit is inserted from the left of a femoral artery to a lower abdominal aorta, and than a stomach fistula treatment is operated. After 20-30 hours for postoperative recovery, the artery conduit is connected to it pressure transducer by a perfusion three-way tube. Blood pressure signals per pulse are transformed into biologic signals by pressure transducer, and systolic blood pressures and diastolic blood pressures per pulse are real-time recorded by a computer. When the SHR is connected to the computer system for 4-5 hours, blood pressures and palpitation intervals in one hour are recorded as normal comparing data before administration. Afterwards, it is adminstrated with a dosage of 30 mg/kg and a volume of 2 ml/kg through the stomach fistula. Blood pressures in 6 hours after administration are continuously recorded to observe changes of systolic blood pressure and diastolic blood pressure.

in vivo = settings: both, Kunming, mouse, po
Protocol: (§1) 20 Kunming mice with weight of 18-22 g are randomly divided into two groups, each group including 10 ones with two identical halves for male and female. The mice are fasted for 6 hours, and then the two groups of mice are administrated by intragastric infusion with the compounds of the present invention in the amount of 10 g/kg, 5 g/kg, 2 g/kg. The administration volume is 0.8 ml/20 g, and the solvent is 0.5% CMC-Na. Observe and accumulate the number of dead animals during 14 days after administration (one administration) to calculate LD50.

Kunming mice = test: Evaluation of toxicity (acute LD50, intragastric); settings: one intragastric administration, 14 days observation, 0.5% CMC-Na
Protocol: as §1

[2] = Efficiency of active metabolism conversion (EXP3174 in blood plasma by HPLC after oral dosing); type: in vivo; settings: SD rats, 20 mg/kg oral intragastric infusion, blood at 3 hours
Protocol: The SD rats are orally administrated by intragastric infusion with a dosage of 20 mg/kg. Blood samples are collected from an orbit at the time of 3 hours since the administration. The blood samples freely drop into centrifuge tubes. The sampling amount of blood is 0.3˜0.5 ml, and the blood plasma is centrifugalized. After the sample is pre-treated, the blood is analyzed by using HPLC method to get the amount of EXP3174 in the blood plasma. Based on the molar ratio of the amount of EXP3174 and the amount of administration dosage, a ratio of the experiment compounds being converted into active metabolite in vivo may be calculated.

[3] = cited from earlier work
[4] = relative to EXP3174; cited from earlier work

| Structure (SMILES) | Systolic blood pressure post-administration [1] [mmHg] | Diastolic blood pressure post-administration [1] [mmHg] | LD50 at 14 days (in vivo) [mg/kg] | other results |
| --- | --- | --- | --- | --- |
| CCCCc1nc(Cl)c(C(=O)OC2OC(=O)c3ccccc32)n1Cc1ccc(-c2ccccc2-c2nnn[nH]2)cc1 (racemic) [Compound 2, (+/−)2-butyl-4-chloro-1-[2′-(1H-tetrazol-5-yl)1,1′-biphenyl-methyl]imidazole-5-carboxylic acid, 2-[C]-benzofuranonyl ester] | 155 | 105 | – | melting point: 120.6 to 124.6 °C |
| CCCCc1nc(Cl)c(C(=O)OC(C)OC(=O)OC2CCCCC2)n1Cc1ccc(-c2ccccc2-c2nnn[nH]2)cc1 (racemic) [Compound 7, (+/−)2-butyl-4-chloro-1-[2′-(1H-tetrazol-5-yl)1,1′-biphenyl-methyl]imidazole-5-carboxylic acid, 1-[(cyclohexyloxycarbonyl)oxy]ethyl ester] | 157 | 103 | – | – |
| CCCCc1nc(Cl)c(C(=O)OCC)n1Cc1ccc(-c2ccccc2-c2nnn[nH]2)cc1 [Compound 1, 2-butyl-4-chloro-1-[2′-(1H-tetrazol-5-yl)1,1′-biphenyl-methyl]imidazole-5-carboxylic acid, ethyl ester] | 159 | 103 | – | – |
| CCCCc1nc(Cl)c(C(=O)OCc2oc(=O)oc2C)n1Cc1ccc(-c2ccccc2-c2nnn[nH]2)cc1 [Compound 3, 2-butyl-4-chloro-1-[2′-(1H-tetrazol-5-yl)1,1′-biphenyl-methyl]imidazole-5-carboxylic acid, cyclic 2,3-carbonate] | 158 | 102 | – | – |
| CCCCc1nc(Cl)c(C(=O)OCOC(=O)C(C)(C)C)n1Cc1ccc(-c2ccccc2-c2nnn[nH]2)cc1 [Compound 4, 2-butyl-4-chloro-1-[2′-(1H-tetrazol-5-yl)1,1′-biphenyl-methyl]imidazole-5-carboxylic acid, pivaloyloxymethyl ester] | 159 | 102 | – | – |
| CCCCc1nc(Cl)c(C(=O)OC(C)OC(=O)OC(C)C)n1Cc1ccc(-c2ccccc2-c2nnn[nH]2)cc1 (stereo not drawn) [Compound 5, 2-butyl-4-chloro-1-[2′-(1H-tetrazol-5-yl)1,1′-biphenyl-methyl]imidazole-5-carboxylic acid, 1-[(isopropoxycarbonyl)oxy]ethyl ester] | 157 | 101 | – | – |
| CCCCc1nc(Cl)c(C(=O)OC(C)OC(=O)OC(C)(C)C)n1Cc1ccc(-c2ccccc2-c2nnn[nH]2)cc1 (stereo not drawn) [Compound 6, 2-butyl-4-chloro-1-[2′-(1H-tetrazol-5-yl)1,1′-biphenyl-methyl]imidazole-5-carboxylic acid, 1-[(tert-butoxycarbonyl)oxy]ethyl ester] | 159 | 103 | – | melting point: 60.5 to 62 °C |
| CCCCc1nc(Cl)c(C(=O)OCOC(=O)OC(C)C)n1Cc1ccc(-c2ccccc2-c2nnn[nH]2)cc1 [Compound 8, 2-butyl-4-chloro-1-[2′-(1H-tetrazol-5-yl)1,1′-biphenyl-methyl]imidazole-5-carboxylic acid, 1-[(isopropoxycarbonyl)oxy]methyl ester] | 156 | 101 | > 10000 | – |
| CCCCc1nc(Cl)c(C(=O)OCOC(=O)OCC)n1Cc1ccc(-c2ccccc2-c2nnn[nH]2)cc1 [Compound 9, 2-butyl-4-chloro-1-[2′-(1H-tetrazol-5-yl)1,1′-biphenyl-methyl]imidazole-5-carboxylic acid, 1-[(ethoxycarbonyl)oxy]methyl ester] | 159 | 104 | > 10000 | – |
| CCCCc1nc(Cl)c(C(=O)OCOC(=O)OC(C)(C)C)n1Cc1ccc(-c2ccccc2-c2nnn[nH]2)cc1 [Compound 10, 2-butyl-4-chloro-1-[2′-(1H-tetrazol-5-yl)1,1′-biphenyl-methyl]imidazole-5-carboxylic acid, 1-[(tert-butoxycarbonyl)oxy]methyl ester] | 158 | 103 | > 10000 | – |
| CCCCc1nc(Cl)c(C(=O)OC(C)OC(=O)OCC)n1Cc1ccc(-c2ccccc2-c2nn[nH]n2)cc1 (stereo not drawn) [HN-65021] | – | – | – | LD50 (Kunming mice): 5000 to 8000 mg/kg; metabolism conversion ratio (molar ratio of EXP3174 in blood plasma to administered dosage) [2]: 1.5% |
| CCCCc1nc(Cl)c(CO)n1Cc1ccc(-c2ccccc2-c2nn[nH]n2)cc1 [losartan potassium] | – | – | 2000 | Share of losartan potassium metabolized in vivo to its active substance EXP3174 [3]: 14%; Activity in reducing blood pressure as share of that of EXP3174 [4]: 3% |
